Source: US4636464A (priority 1985, dated 1987)

Columns and labels:
Format in all cases: biochemical, Coriolus versicolor
pyranose oxidase [1] = biological target: T1, pyranose oxidase (Trametes versicolor, UniProt P79076); assay: biochemical; set-up: activity: dose or concentration left out as unconfirmed; settings: for activity: pH 7, read-out: Relative Activity (%); for activity at 100000 µM: pH 7, read-out: Relative Activity (%); for Substrate specificity in words: same test as Table 1
T1 construct: made in house; not recombinant
Method: Said coloring reagent is prepared by adding 0.1M tris-hydrochloride buffer (pH 7.0) containing 10 m mol/l 4-aminoantipyrine(hereinafter referred to as 4AA) and 10 m mol/l phenol, to peroxidase in a concentration of 2000 U per 100 ml of the buffer. The increasing rate of the absorbancy at 500 nm is automatically measured on a spectrophotometer. The molecular extinction coefficient of a quinoneimine pigment formed under these conditions is defined as 5.3×10^3, and one unit of the enzymatic activity is also defined as the amount of the enzyme that produces one μ mole of hydrogen peroxide per minute at a temperature of 37° C. and at a pH of 7.0.
The results are expressed as percentages of the glucose reaction.

pyranose oxidase [2] = biological target: T1, pyranose oxidase; assay: Electron acceptor test (Thunberg tube, absorbancy change)
Method: In this phase, 1.4 ml of 50 mM tris-hydrochloride buffer (pH 7.0), 0.1 ml of 250 mU enzyme solution and 0.5 ml of electron acceptor solutions having various concentrations as indicated in Table 2 are put into a cell with Thunberg tube. […] The change in absorbancy per minute from 30 minutes to 90 minutes after the mixturing is determined and the activities of the electron acceptors are expressed as relative activity.

pyranose oxidase [3] = biological target: T1, pyranose oxidase; settings: for Percent Inhibition (%): 0.2 ml of 18.5 mM inhibitor solution, 280 mU pyranose oxidase, pH 7.0, 37° C.
From the text: The inhibitor is studied in the same manner as that adopted in determination of the optimum pH.

[4] = electron acceptor solution 0.1 mM, pH 7.0, dissolved oxygen removed
[5] = electron acceptor solution 0.1 mM, pH 7.0, dissolved oxygen removed, read-out: Relative Activity (%)

OC[C@H]1O[C@@H](O[C@H]2[C@H](O)[C@@H](O)C(O)O[C@@H]2CO)[C@H](O)[C@@H](O)[C@H]1O (stereo partly shown) [lactose]
activity (pyranose oxidase [1]): 0%

OC[C@H]1O[C@H](O[C@H]2[C@H](O)[C@@H](O)[C@H](O)O[C@@H]2CO)[C@H](O)[C@@H](O)[C@@H]1O [maltose]
activity (pyranose oxidase [1]): 0%

Nitroprusside-tetrazolium
Relative Activity (%) (pyranose oxidase [2]; [4]): 0%

O=S(=O)([O-])[O-].[Co+2] [cobalt sulfate]
Percent Inhibition (%) (pyranose oxidase [3]): 13.3%

O=C(CO)[C@H](O)[C@@H](O)[C@H](O)CO [sorbose]
activity at 100000 µM (pyranose oxidase [1]): 3.4%
Substrate specificity in words (pyranose oxidase [1]): acts upon

O=S(=O)([O-])[O-].[Mg+2] [magnesium sulfate]
Percent Inhibition (%) (pyranose oxidase [3]): 0%

NC(=O)c1ccc[n+]([C@@H]2O[C@H](COP(=O)([O-])OP(=O)(O)OC[C@H]3O[C@@H](n4cnc5c(N)ncnc54)[C@H](O)[C@@H]3O)[C@@H](O)[C@H]2O)c1 [Nicotinamide-adenine dinucleotide]
activity at 100 µM (stock) (pyranose oxidase [2]; [5]): 0%

O=O [Oxygen]
Suitability as electron acceptor in words (pyranose oxidase [2]): optimum electron acceptor
Relative Activity (%) (pyranose oxidase [2]; electron acceptor: dissolved oxygen, pH 7.0, glucose substrate): 100%

NC(=O)c1ccc[n+]([C@@H]2O[C@H](COP(=O)([O-])OP(=O)(O)OC[C@H]3O[C@@H](n4cnc5c(N)ncnc54)[C@H](OP(=O)(O)O)[C@@H]3O)[C@@H](O)[C@H]2O)c1 [Nicotinamide-adenine dinucleotide phosphate]
activity at 100 µM (stock) (pyranose oxidase [2]; [5]): 0%

OC1OC[C@@H](O)[C@H](O)[C@H]1O (stereo partly shown) [xylose]
activity (pyranose oxidase [1]): 2.6%
Substrate specificity in words (pyranose oxidase [1]): acts upon

OC[C@H]1O[C@H](O[C@H]2O[C@H](CO)[C@@H](O)[C@H](O)[C@H]2O)[C@H](O)[C@@H](O)[C@@H]1O [trehalose]
activity (pyranose oxidase [1]): 0%

O=S(=O)([O-])[O-].[Cu+2] [copper sulfate]
Inhibition of the enzymatic action in words (pyranose oxidase [3]): inhibited
Percent Inhibition (%) (pyranose oxidase [3]): 35.7%

O=[N+]([O-])[O-].[Ag+] [silver nitrate]
Inhibition of the enzymatic action in words (pyranose oxidase [3]): inhibited
Percent Inhibition (%) (pyranose oxidase [3]): 53.3%

OC[C@@H](O)[C@@H](O)[C@H](O)[C@H](O)CO [mannitol]
activity (pyranose oxidase [1]): 0%

O=C(O)c1cc[c]([Hg][Cl])cc1 [p-chloromercuribenzoate]
Inhibition of the enzymatic action in words (pyranose oxidase [3]): inhibited
Percent Inhibition (%) (pyranose oxidase [3]): 50.0%

O=C1C(Cl)=CC(=Nc2ccc(O)cc2)C=C1Cl [2,6-Dichlorophenolindophenol]
Suitability as electron acceptor in words (pyranose oxidase [2]): may be made electron acceptor
activity at 40 µM (stock) (pyranose oxidase [2]; electron acceptor solution 0.04 mM, pH 7.0, dissolved oxygen removed, read-out: Relative Activity (%)): 2.5%

N[C@H]1C(O)O[C@H](CO)[C@@H](O)[C@@H]1O (stereo partly shown) [glucosamine]
activity (pyranose oxidase [1]): 0%

Cytochrome C
Suitability as electron acceptor in words (pyranose oxidase [2]): may be made electron acceptor
Relative Activity (%) (pyranose oxidase [2]; [4]): 0.33%

O=C(CO)[C@@H](O)[C@H](O)[C@H](O)CO [fructose]
activity at 100000 µM (pyranose oxidase [1]): 0%

O=C(O)[C@H](O)[C@@H](O)[C@H](O)[C@H](O)CO [gluconic acid]
activity (pyranose oxidase [1]): 0%
